Where a name gives a salt, the structure may show the parent alone.
System: Acinetobacter baumannii ATCC 17961
Experiment: Antimicrobial susceptibility testing: 90% growth inhibitory concentration (IC90) determination
Assay type: cell-based
Conditions: ATCC17961, Acinetobacter baumannii ATCC 17961, Iso-Sensitest broth, read-out: ATCC 17961 IC90
Summary of the method: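 Broth microdilution in Iso-Sensitest medium, twofold series (e.g. 50 to 0.097 μM final), ~5×10^5 CFU/ml inoculum, 35±2 °C. OD600 read every 20 min over 16 h. IC90 derived from growth inhibition during logarithmic phase.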

Row | IC90 [µM] | SMILES
1 | 0.312 | C=C(C)Cn1cc(-c2cnc(C(=O)Nc3ccc(C(=O)NCCCN)c(Cl)c3)n2C)c(C(F)(F)F)n1 [Example 255, N-(4-((3-aminopropyl)carbamoyl)-3-chlorophenyl)-1-methyl-5-(1-(2-methylallyl)-3-(trifluoromethyl)-1H-pyrazol-4-yl)-1H-imidazole-2-carboxamide tris(2,2,2-trifluoroacetate)]
2 | 0.313 | C=C(C)Cn1cc(-c2cnc(C(=O)Nc3ccc(C(=O)N4CCN(C(=O)[C@H]5[C@@H]6CNC[C@@H]65)CC4)c(Cl)c3)n2C)c(C(F)(F)F)n1 [Example 257, rac-N-(4-(4-((1R,5S,6r)-3-azabicyclo[3.1.0]hexane-6-carbonyl)piperazine-1-carbonyl)-3-chlorophenyl)-1-methyl-5-(1-(2-methylallyl)-3-(trifluoromethyl)-1H-pyrazol-4-yl)-1H-imidazole-2-carboxamide hydrochloride]
3 | 0.314 | Cn1c(-c2cn(C3CC3)nc2C(F)(F)F)cnc1C(=O)Nc1ccc(C(=O)N2CCN(C(=O)[C@]3(C)CCCN3)CC2)c(Cl)c1 [Example 258, (S)-N-(3-chloro-4-(4-(2-methylpyrrolidine-2-carbonyl)piperazine-1-carbonyl)phenyl)-5-(1-cyclopropyl-3-(trifluoromethyl)-1H-pyrazol-4-yl)-1-methyl-1H-imidazole-2-carboxamide hydrochloride]
4 | 0.314 | Cn1c(-c2cn(C3C=C(F)C3)nc2C(F)(F)F)cnc1C(=O)Nc1ccc(C(=O)N[C@H]2[C@@H]3CN(C(=O)C4CCNCC4)C[C@@H]32)c(Cl)c1 (stereo partly drawn) [Example 259, N-(3-chloro-4-(((exo)-3-(piperidine-4-carbonyl)-3 azabicyclo[3.1.0]hexan-6-yl)carbamoyl)phenyl)-5-(1-(3-fluorocyclobut-2-en-1-yl)-3-(trifluoromethyl)-1H-pyrazol-4-yl)-1-methyl-1H-imidazole-2-carboxamide formate]
5 | 0.314 | Cn1c(-c2cn(CC3CCC3)nc2C(F)(F)F)cnc1C(=O)Nc1ccc(C(=O)N2CCN(C(=O)N[C@H]3C[C@@H](N)C3)CC2)c(Cl)c1 [Example 260, rac-N-((1s,3s)-3-aminocyclobutyl)-4-(2-chloro-4-(5-(1-(cyclobutylmethyl)-3-(trifluoromethyl)-1H-pyrazol-4-yl)-1-methyl-1H-imidazole-2-carboxamido)benzoyl)piperazine-1-carboxamide hydrochloride]
6 | 0.323 | C#CCn1cc(-c2cnc(C(=O)Nc3ccc(C(=O)N4CCN(C(=O)C5CCNCC5)CC4)c(F)c3)n2C)c(C(F)(F)F)n1 [Example 261, N-(3-fluoro-4-(4-(piperidine-4-carbonyl)piperazine-1-carbonyl)phenyl)-1-methyl-5-(1-(prop-2-yn-1-yl)-3-(trifluoromethyl)-1H-pyrazol-4-yl)-1H-imidazole-2-carboxamide]
7 | 0.323 | Cn1c(-c2cn(C3CC3)nc2C(F)(F)F)cnc1C(=O)Nc1ccc(C(=O)NCCCCCCNC(=O)N[C@H]2C[C@@H](N)C2)c(Cl)c1 [Example 262, N-[4-[6-[(3-aminocyclobutyl)carbamoyl-amino]hexylcarbamoyl]-3-chlorophenyl]-5-[1-cyclopropyl-3-(trifluoromethyl)pyrazol-4-yl]-1-methylimidazole-2-carboxamide;formic acid]
8 | 0.325 | CCn1cc(-c2cnc(C(=O)Nc3ccc(C(=O)N4CCN(C(=O)[C@H]5[C@@H]6CNC[C@@H]65)CC4)c(Br)c3)n2C)c(C(F)(F)F)n1 [Example 263, N-[3-bromo-4-[4-[rac-(1R,5S)-3-azabicyclo[3.1.0]hexane-6-carbonyl]piperazine-1-carbonyl]phenyl]-5-[1-ethyl-3-(trifluoromethyl)pyrazol-4-yl]-1-methylimidazole-2-carboxamide;hydrochloride]
9 | 0.325 | Cn1c(-c2cn(C3CC3(F)F)nc2C(F)(F)F)cnc1C(=O)Nc1ccc(C(=O)N[C@H]2[C@@H]3CN(C(=O)N4CCN(CCCN)CC4)C[C@@H]32)c(Cl)c1 (stereo partly drawn) [Example 264, N-(4-(((1R,5S,6s)-3-(4-(3-aminopropyl)piperazine-1-carbonyl)-3-azabicyclo[3.1.0]hexan-6-yl)carbamoyl)-3-chlorophenyl)-5-(1-(2,2-difluorocyclopropyl)-3-(trifluoromethyl)-1H-pyrazol-4-yl)-1-methyl-1H-imidazole-2-carboxamide]
10 | 0.328 | Cn1c(-c2cn(C3CC3(F)F)nc2C(F)(F)F)cnc1C(=O)Nc1ccc(C(=O)NC2[C@H]3CN(C(=O)N[C@H]4C[C@@H](N)C4)C[C@@H]23)c(Cl)c1 (stereo partly drawn) [Example 265, cis-N-(3-aminocyclobutyl)-6-[[2-chloro-4-[[5-[1-(2,2-difluorocyclopropyl)-3-(trifluoromethyl)pyrazol-4-yl]-1-methylimidazole-2-carbonyl]amino]benzoyl]amino]-3-azabicyclo[3.1.0]hexane-3-carboxamide, formate salt]
11 | 0.332 | Cn1c(-c2cn(C3CC3(F)F)nc2C(F)(F)F)cnc1C(=O)Nc1ccc(C(=O)N2CCN(C(=O)C3CCNCC3)CC2)c(Cl)c1 (stereo not drawn) [Example 267, N-(3-chloro-4-(4-(piperidine-4-carbonyl)piperazine-1-carbonyl)phenyl)-5-(1-(2,2-difluorocyclopropyl)-3-(trifluoromethyl)-1H-pyrazol-4-yl)-1-methyl-1H-imidazole-2-carboxamide formate]
12 | 0.333 | Cn1c(-c2cn(CC#N)nc2C(F)(F)F)cnc1C(=O)Nc1ccc(C(=O)N[C@H]2C[C@@H](NC(=O)[C@H]3C[C@H](N)C3)C2)c(Cl)c1 [Example 269, N-[4-[[3-[(3-aminocyclobutanecarbonyl)ami-no]cyclobutyl]carbamoyl]-3-chloro-phenyl]-5-[1-(cyanomethyl)-3-(trifluoromethyl)pyrazol-4-yl]-1-methyl-imidazole-2-carboxamide; formic acid]
13 | 0.333 | Cn1c(-c2cn(C3CC3)nc2C(F)(F)F)cnc1C(=O)Nc1ccc(C(=O)N2CCN(C(=O)C(O)CN)CC2)c(Cl)c1 (stereo not drawn) [Example 270, N-[4-[4-(3-amino-2-hydroxypropanoyl)piperazine-1-carbonyl]-3-chlorophenyl]-5-[1-cyclopropyl-3-(trifluoromethyl)pyrazol-4-yl]-1-methylimidazole-2-carboxamide;hydrochloride]
14 | 0.335 | Cn1c(-c2cn(CC(F)F)nc2C(F)(F)F)cnc1C(=O)Nc1ccc(C(=O)N2CCN(C(=O)N[C@H]3C[C@@H](N)C3)CC2)c(F)c1 [Example 272, rac-N-((1s,3s)-3-aminocyclobutyl)-4-(4-(5-(1-(2,2-difluoroethyl)-3-(trifluoromethyl)-1H-pyrazol-4-yl)-1-methyl-1H-imidazole-2-carboxamido)-2-fluorobenzoyl)piperazine-1-carboxamide]
15 | 0.336 | Cn1c(-c2cn(C3CC3)nc2C(F)(F)F)cnc1C(=O)Nc1ccc(C(=O)N2CCN(C(=O)[C@H]3CCCCN3)CC2)c(Cl)c1 [Example 273, (R)-N-(3-chloro-4-(4-(piperidine-2-carbonyl)piperazine-1-carbonyl)phenyl)-5-(1-cyclopropyl-3-(trifluoromethyl)-1H-pyrazol-4-yl)-1-methyl-1H-imidazole-2-carboxamide hydrochloride]
16 | 0.338 | Cn1c(-c2cn(C3CCCC3)nc2C(F)(F)F)cnc1C(=O)Nc1ccc(C(=O)N2CCN(C(=O)C3CCNCC3)CC2)c(Cl)c1 [Example 274, N-(3-chloro-4-(4-(piperidine-4-carbonyl)piperazine-1-carbonyl)phenyl)-5-(1-cyclopentyl-3-(trifluoromethyl)-1H-pyrazol-4-yl)-1-methyl-1H-imidazole-2-carboxamide hydrochloride]
17 | 0.341 | Cn1c(-c2cn(CC#N)nc2C(F)(F)F)cnc1C(=O)Nc1ccc(C(=O)N[C@H]2C[C@@H](NC(=O)N[C@@H]3CC[C@H](N)C3)C2)c(Cl)c1 [Example 275, N-[4-[[3-[[(1R,3S)-3-aminocyclopentyl]carbamoylami-no]cyclobutyl]carbamoyl]-3-chloro-phenyl]-5-[1-(cyanomethyl)-3-(trifluoromethyl)pyrazol-4-yl]-1-methyl-imidazole-2-carboxamide; formic acid]
18 | 0.343 | Cn1c(-c2cn(CC3CCC3)nc2C(F)(F)F)cnc1C(=O)Nc1ccc(C(=O)N2CCN(C(=O)[C@H]3C[C@H](N)C3)CC2)c(Cl)c1 [Example 276, rac-N-(4-(4-((1r,3r)-3-aminocyclobutane-1-carbonyl)piperazine-1-carbonyl)-3-chlorophenyl)-5-(1-(cyclobutylmethyl)-3-(trifluoromethyl)-1H-pyrazol-4-yl)-1-methyl-1H-imidazole-2-carboxamide hydrochloride]
19 | 0.343 | Cn1c(-c2cn(C3CC3)nc2C(F)(F)F)cnc1C(=O)Nc1ccc(C(=O)N2CCCC(CN)C2)c(Cl)c1 (stereo not drawn) [Example 277, N-[4-[3-(aminomethyl)piperidine-1-carbonyl]-3-chlorophenyl]-5-[1-cyclopropyl-3-(trifluoromethyl)pyrazol-4-yl]-1-methylimidazole-2-carboxamide;hydrochloride]

Row | SMILES | IC90 [µM]
20 | Cn1c(-c2cn(C3CC3(F)F)nc2C(F)(F)F)cnc1C(=O)Nc1ccc(C(=O)N2C3CCC2CNC3)c(Cl)c1 (stereo not drawn) [Example 268, N-(4-(3,8-diazabicyclo[3.2.1]octane-8-carbonyl)-3-chlorophenyl)-5-(1-(2,2-difluorocyclopropyl)-3-(trifluoromethyl)-1H-pyrazol-4-yl)-1-methyl-1H-imidazole-2-carboxamide formate] | 0.332

Same assay, conditions: Acinetobacter baumannii, ATCC17961, read-out: ATCC 17961 IC90, Acinetobacter baumannii ATCC 17961, Iso-Sensitest broth

Row | SMILES | IC90 [µM]
21 | Cn1c(-c2cn(C3CC3)nc2C(F)(F)F)cnc1C(=O)Nc1ccc(C(=O)N2CCN(C(=O)N[C@@H]3C[C@H](N)C3(C)C)CC2)c(Cl)c1 [Example 266, N-[(1R,3S)-3-amino-2,2-dimethylcyclobutyl]-4-[2-chloro-4-[[5-[1-cyclopropyl-3-(trifluoromethyl)pyrazol-4-yl]-1-methylimidazole-2-carbonyl]amino]benzoyl]pipera-zine-1-carboxamide;formic acid] | 0.33
